Literature values as cited in US10665326B2, “Deep proteome markers of human biological aging and methods of determining a biological aging clock” (INSILICO MEDICINE, INC., priority 2017, dated 2020).

Experiments:
[1] = system: pre-senescent and senescent cells

Compound | killing of pre-senescent and senescent cells [1] | mitogenic response (muscle cells)
O=c1c(O)c(-c2ccc(O)c(O)c2)oc2cc(O)cc(O)c12 [quercetin] | able to kill pre-senescent and senescent cells | –
Tocotrienols | able to kill pre-senescent and senescent cells | –
740 Y-P | – | stimulates a mitogenic response
